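Where inhibition never reached the appropriate level, the endpoint shown equals the highest concentration tested. Otherwise, values were interpolated linearly from a five-concentration, 48-hour dose response in 96-well plates. At the GI50, growth is halved.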 Activity calls are given as the source filed them. Cut-off read from the data, not from the text of the source: active = GI50 up to about 1.1 µM and inactive = higher.
Tests used:
Experiment in all cases: NCI tumour cell line growth inhibition, 48 h
DU-145 = system: DU-145
TK-10 = system: TK-10
SF-268 = system: SF-268
MDA-N = system: MDA-N
SF-295 = system: SF-295
SK-MEL-2 = system: SK-MEL-2
LOX IMVI = system: LOX IMVI
PC-3 = system: PC-3
IGROV-1 = system: IGROV-1
786-0 = system: 786-0
OVCAR-8 = system: OVCAR-8
OVCAR-5 = system: OVCAR-5
SK-MEL-5 = system: SK-MEL-5
Hs-578T = system: Hs-578T
UACC-257 = system: UACC-257
ACHN = system: ACHN
SR = system: SR
SNB-19 = system: SNB-19
SK-MEL-28 = system: SK-MEL-28
HOP-92 = system: HOP-92

Row | SMILES | GI50 (DU-145) | GI50 (TK-10) | GI50 (SF-268) | GI50 (MDA-N) | GI50 (SF-295) | GI50 (SK-MEL-2) | GI50 (LOX IMVI) | GI50 (PC-3) | GI50 (IGROV-1) | GI50 (786-0) | GI50 (OVCAR-8) | GI50 (OVCAR-5) | GI50 (SK-MEL-5) | GI50 (Hs-578T) | GI50 (UACC-257) | GI50 (ACHN) | GI50 (SR) | GI50 (SNB-19) | GI50 (SK-MEL-28) | GI50 (HOP-92)
1 | CC(=O)OCC1OC(OCCCOP(=S)(OCCC#N)OCC2OC(n3ccc(N)nc3=O)C(OC(=O)c3ccccc3)C2OC(=O)c2ccccc2)C(OC(C)=O)C(OC(C)=O)C1OC(C)=O (stereo not given) | > 100 µM (inactive) | > 100 µM (inactive) | > 100 µM (inactive) | > 100 µM (inactive) | > 100 µM (inactive) | > 100 µM (inactive) | > 100 µM (inactive) | > 100 µM (inactive) | > 100 µM (inactive) | > 100 µM (inactive) | > 100 µM (inactive) | > 100 µM (inactive) | > 100 µM (inactive) | > 100 µM (inactive) | > 100 µM (inactive) | > 100 µM (inactive) | > 100 µM (inactive) | > 100 µM (inactive) | > 100 µM (inactive) | > 100 µM (inactive)
2 | COc1cc2c(c3oc4c(O)cccc4c(=O)c13)CC(C(C)(O)CO)O2 (stereo not given) | > 100 µM (inactive) | > 100 µM (inactive) | 46.8 µM (inactive) | 94.8 µM (inactive) | > 100 µM (inactive) | 57.4 µM (inactive) | 25 µM (inactive) | > 100 µM (inactive) | 41.7 µM (inactive) | 65.6 µM (inactive) | 53.1 µM (inactive) | > 100 µM (inactive) | 53 µM (inactive) | 44.3 µM (inactive) | > 100 µM (inactive) | 59.6 µM (inactive) | 34.1 µM (inactive) | 94.4 µM (inactive) | > 100 µM (inactive) | 37.2 µM (inactive)
3 | Clc1cc(C(c2cc(Cl)sc2Cl)c2cc(Cl)sc2Cl)c(Cl)s1 | > 100 µM (inactive) | > 100 µM (inactive) | > 100 µM (inactive) | > 100 µM (inactive) | > 100 µM (inactive) | > 100 µM (inactive) | > 100 µM (inactive) | > 100 µM (inactive) | > 100 µM (inactive) | > 100 µM (inactive) | > 100 µM (inactive) | > 100 µM (inactive) | > 100 µM (inactive) | > 100 µM (inactive) | > 100 µM (inactive) | > 100 µM (inactive) | > 100 µM (inactive) | > 100 µM (inactive) | > 100 µM (inactive) | > 100 µM (inactive)
4 | Nc1ccc2c(c1)NC(=O)[C@@H]1CCCN1C2=O | > 100 µM (inactive) | > 100 µM (inactive) | > 100 µM (inactive) | > 100 µM (inactive) | > 100 µM (inactive) | > 100 µM (inactive) | > 100 µM (inactive) | > 100 µM (inactive) | > 100 µM (inactive) | > 100 µM (inactive) | > 100 µM (inactive) | > 100 µM (inactive) | > 100 µM (inactive) | > 100 µM (inactive) | > 100 µM (inactive) | > 100 µM (inactive) | > 100 µM (inactive) | > 100 µM (inactive) | > 100 µM (inactive) | > 100 µM (inactive)
5 | O=C1OC([C@H](O)c2cccnc2)c2ccccc21 (stereo not given in full) | > 10 µM (inactive) | > 10 µM (inactive) | > 10 µM (inactive) | > 10 µM (inactive) | > 10 µM (inactive) | > 10 µM (inactive) | > 10 µM (inactive) | > 10 µM (inactive) | > 10 µM (inactive) | > 10 µM (inactive) | > 10 µM (inactive) | > 10 µM (inactive) | > 10 µM (inactive) | > 10 µM (inactive) | > 10 µM (inactive) | > 10 µM (inactive) | > 10 µM (inactive) | > 10 µM (inactive) | > 10 µM (inactive) | > 10 µM (inactive)
6 | CN(C)c1ccc(C2CC(C)(O)Oc3cc4c(cc32)OCO4)cc1 (stereo not given) | > 100 µM (inactive) | 59.3 µM (inactive) | 46.7 µM (inactive) | 18.6 µM (inactive) | 29.1 µM (inactive) | 22.2 µM (inactive) | 31.6 µM (inactive) | 39.4 µM (inactive) | 1.73 µM (inactive) | 43.7 µM (inactive) | 29.5 µM (inactive) | 75.9 µM (inactive) | 30.6 µM (inactive) | 61 µM (inactive) | 62.4 µM (inactive) | 70.6 µM (inactive) | 9.33 µM (inactive) | 98.9 µM (inactive) | 36.9 µM (inactive) | 25.9 µM (inactive)
7 | Cc1ccc(C2SCC(=O)N2c2ccc(-c3ccc(-n4c(-c5ccccc5)nc5ccccc5c4=O)cc3)cc2)cc1 (stereo not given) | > 100 µM (inactive) | > 100 µM (inactive) | 33.8 µM (inactive) | 80 µM (inactive) | > 100 µM (inactive) | > 100 µM (inactive) | 54.1 µM (inactive) | 42.4 µM (inactive) | 25.3 µM (inactive) | 45.7 µM (inactive) | > 100 µM (inactive) | > 100 µM (inactive) | 41.1 µM (inactive) | 55.5 µM (inactive) | > 100 µM (inactive) | > 100 µM (inactive) | 36.4 µM (inactive) | > 100 µM (inactive) | > 100 µM (inactive) | 35 µM (inactive)
8 | CC1(C)N=c2[nH]cnc2=C(C(N)=O)N1 | > 100 µM (inactive) | > 100 µM (inactive) | > 100 µM (inactive) | > 100 µM (inactive) | > 100 µM (inactive) | > 100 µM (inactive) | > 100 µM (inactive) | > 100 µM (inactive) | > 100 µM (inactive) | > 100 µM (inactive) | > 100 µM (inactive) | > 100 µM (inactive) | > 100 µM (inactive) | > 100 µM (inactive) | > 100 µM (inactive) | > 100 µM (inactive) | > 100 µM (inactive) | > 100 µM (inactive) | > 100 µM (inactive) | > 100 µM (inactive)
9 | CNC(=O)N(C)C(=O)c1ccccc1C(=O)N(C)C(=O)NC | > 10 µM (inactive) | > 10 µM (inactive) | > 10 µM (inactive) | > 10 µM (inactive) | > 10 µM (inactive) | > 10 µM (inactive) | > 10 µM (inactive) | > 10 µM (inactive) | > 10 µM (inactive) | > 10 µM (inactive) | > 10 µM (inactive) | > 10 µM (inactive) | > 10 µM (inactive) | > 10 µM (inactive) | > 10 µM (inactive) | > 10 µM (inactive) | > 10 µM (inactive) | > 10 µM (inactive) | > 10 µM (inactive) | > 10 µM (inactive)
10 | O=[N+]([O-])/C=C/c1cc(Cl)c(/C=C/[N+](=O)[O-])cc1Cl | 2.51 µM (inactive) | 2.12 µM (inactive) | 2.66 µM (inactive) | 2.27 µM (inactive) | 4.68 µM (inactive) | 3.25 µM (inactive) | 1.53 µM (inactive) | 2.55 µM (inactive) | 3.29 µM (inactive) | 1.16 µM (inactive) | 1.61 µM (inactive) | 1.52 µM (inactive) | 3.53 µM (inactive) | 2.91 µM (inactive) | 1.89 µM (inactive) | 1.57 µM (inactive) | 0.225 µM (active) | 2.37 µM (inactive) | 1.68 µM (inactive) | 2.55 µM (inactive)
11 | CCOC(=O)c1ccc2nc3n(c2c1)C(c1c(F)cccc1F)SC3 (stereo not given) | > 100 µM (inactive) | > 100 µM (inactive) | > 100 µM (inactive) | > 100 µM (inactive) | > 100 µM (inactive) | > 100 µM (inactive) | > 100 µM (inactive) | 72.1 µM (inactive) | 86.7 µM (inactive) | 55.7 µM (inactive) | > 100 µM (inactive) | > 100 µM (inactive) | > 100 µM (inactive) | > 100 µM (inactive) | > 100 µM (inactive) | 84.1 µM (inactive) | 49.3 µM (inactive) | 95.3 µM (inactive) | > 100 µM (inactive) | > 100 µM (inactive)
12 | c1ccc(B2OCC(C3OB(c4ccccc4)OC4COB(c5ccccc5)OC43)O2)cc1 (stereo not given) | > 100 µM (inactive) | > 100 µM (inactive) | > 100 µM (inactive) | > 100 µM (inactive) | > 100 µM (inactive) | > 100 µM (inactive) | > 100 µM (inactive) | > 100 µM (inactive) | > 100 µM (inactive) | > 100 µM (inactive) | > 100 µM (inactive) | > 100 µM (inactive) | > 100 µM (inactive) | > 100 µM (inactive) | > 100 µM (inactive) | > 100 µM (inactive) | > 100 µM (inactive) | > 100 µM (inactive) | > 100 µM (inactive) | > 100 µM (inactive)
13 | c1ccc([P+](Cc2ccc(C[P+](c3ccccc3)(c3ccccc3)c3ccccc3)s2)(c2ccccc2)c2ccccc2)cc1 | > 100 µM (inactive) | > 100 µM (inactive) | > 100 µM (inactive) | > 100 µM (inactive) | > 100 µM (inactive) | > 100 µM (inactive) | > 100 µM (inactive) | > 100 µM (inactive) | > 100 µM (inactive) | > 100 µM (inactive) | > 100 µM (inactive) | > 100 µM (inactive) | > 100 µM (inactive) | > 100 µM (inactive) | > 100 µM (inactive) | > 100 µM (inactive) | > 100 µM (inactive) | > 100 µM (inactive) | > 100 µM (inactive) | > 100 µM (inactive)
14 | Clc1ccc2c(NCCCCCCNc3ccnc4cc(Cl)ccc34)ccnc2c1 | 6.19 µM (inactive) | 6.78 µM (inactive) | 5.35 µM (inactive) | 2.46 µM (inactive) | 2.11 µM (inactive) | 5.97 µM (inactive) | 1.74 µM (inactive) | 3.65 µM (inactive) | 4.8 µM (inactive) | 1.97 µM (inactive) | 2.05 µM (inactive) | 7.05 µM (inactive) | 3.34 µM (inactive) | 3.27 µM (inactive) | 7.57 µM (inactive) | 3.67 µM (inactive) | 1.59 µM (inactive) | 3.8 µM (inactive) | 4.62 µM (inactive) | 2 µM (inactive)

Reference: ChEMBL document CHEMBL1201862, “PubChem BioAssay data set” (2004)
